Measured values published in US20260355170A1, “Treatment of Endometrial Cancer with MDM2 Inhibitors” (Kartos Therapeutics, Inc., priority 2023, published 2026).

Tests used:
Type in all cases: cell-based
[1] = test system: p53 wild-type (TP53 WT) endometrial cancer cell line; experiment: Inhibition of endometrial cancer cell growth (overall result, FIG. 1); conditions: at clinically relevant doses; results shown in FIG. 1
Method: (§1) The effect of MDM2 inhibitor compound of Formula (I) on growth of a p53 wild-type (TP53 WT) endometrial cancer cell line was assessed in HEC-151 cells, HEC-265 cells, and HEC-108 cells as described below.
(§2) Test and Control Article Preparation: A stock solution for Formula (I) was created by dissolving the compound in 100% DMSO to a concentration of 10 mM which was stored at −20 °C. Working solutions ranging from 0.04 μM to 10 μM to generate a 10-point dilution series were prepared by diluting the stock solution in culture media specific to each cell line (cell line assay media). Final concentrations of DMSO were kept constant at 0.1% to maintain cell viability. […]
(§3) Treatment of Cells for Proliferation Assay: Cells were counted (Countess III automated cell counter, Thermo Fisher Scientific) using a cell viability imaging kit (Thermo Fisher Scientific; cat #R37609). […]
(§4) On Day 0 prior treatment, and after the treatment period, the number of viable cells were measured using the CellTiter-Glo® Luminescent Cell Viability Assay (Promega) according to manufacturer instructions. The luminescence for each treatment condition was normalized to the DMSO control as a percent of control. Dose response curves were generated and EC50s and EC90s were determined based on percent of DMSO control. […]

HEC-108 cells = experiment: CellTiter-Glo viability/proliferation assay, growth of HEC-108 TP53 WT endometrial cancer cells
Method: as §1, §2, §3, §4

HEC-151 cells = experiment: CellTiter-Glo viability/proliferation assay, growth of HEC-151 TP53 WT endometrial cancer cells; conditions: 144 h, 6-day incubation
Method: as §1, §2, §3, §4

HEC-265 cells = experiment: CellTiter-Glo viability/proliferation assay, growth of HEC-265 TP53 WT endometrial cancer cells; conditions: 144 h, 6-day incubation
Method: as §1, §2, §3, §4

[2] = read-out: Near complete growth inhibition (EC90)

## CC(C)[C@@H](CS(=O)(=O)C(C)C)N1C(=O)[C@@](C)(CC(=O)O)C[C@H](c2cccc(Cl)c2)[C@H]1c1ccc(Cl)cc1 [Formula (I), 2-((3R,5R,6S)-5-(3-chlorophenyl)-6-(4-chlorophenyl)-1-((S)-1-(isopropylsulfonyl)-3-methylbutan-2-yl)-3-methyl-2-oxopiperidin-3-yl) acetic Acid]
[1]
  growth inhibition: growth inhibition by the compound of Formula (I) at clinically relevant doses
HEC-108 cells; at 10 μM, 6-day exposure
  growth inhibition (200-point scale: 0 uninhibited growth, 100 cell stasis, 200 complete cell killing): only nearly reached cell stasis
HEC-108 cells; compared with HEC-151 and HEC-265, 6-day exposure
  cell killing sensitivity: less sensitive
HEC-151 cells; percent of DMSO control
  EC50: 400 nM
HEC-151 cells; [2]
  EC90: 700 nM
HEC-265 cells; percent of DMSO control
  EC50: 600 nM
HEC-265 cells; [2]
  EC90: 700 nM
